Experimental data published in publication PMC9221546, “New Phenylglycinamide Derivatives with Hybrid Structure as Candidates for New Broad-Spectrum Anticonvulsants” (Cells, 2022).
“Also recorded” adds a separate entry of the source.

Legend:
[1] = tested on: 6 Hz (44 mA) seizures in mice; assay: 6 Hz (44 mA) seizure model of drug-resistant epilepsy; type: in vivo; conditions: Mus musculus, ip, pretreatment time 0.5 h, (95% confidence limits)
Experimental: Adult male Albino Swiss mice that weighed between 22 and 26 g were used in the in vivo studies. They were housed under standardized housing conditions in colony cages and had free access to food as well as tap water. The animals were left to adapt under laboratory conditions for 7 days. All procedures involving animals and their care were performed in accordance with the current European Community and Polish legislation on animal experimentation.
In the initial screening studies, four mice per group were randomly assigned to each experimental group (each mouse was used only once). To evaluate the ED50 or TD50 values, 3–4 groups that consisted of eight animals were injected with various doses of tested compounds. The protective indexes (PIs) for the compounds that were investigated and reference ASDs were calculated by dividing the TD50 value, as determined in the chimney test (or rotarod test), by the respective ED50 value, as determined in the MES, scPTZ, or 6 Hz (32 mA or 44 mA) tests (PI = TD50/ED50). The PIs is a measure of the potential therapeutic window of the tested agent.
All substances were suspended in Tween 80 (1% aqueous solution) and administered i.p. as a single injection at a dose of 10 mL/kg. […]
Taking into consideration the potent protection of 53 and 60 in the 6 Hz (32 mA) seizure model, these compounds were also evaluated by applying a higher current intensity of 44 mA. […]

TRPV1 (VR1) (h) = target: T1, TRPV1 (VR1) (h) (Homo sapiens, UniProt Q8NER1); assay: TRPV1 (VR1) (h) antagonist effect functional assay; type: cell-based; conditions: human recombinant CHO cells
T1 construct: host or cells: CHO
T1 sequence (Q8NER1 whole entry): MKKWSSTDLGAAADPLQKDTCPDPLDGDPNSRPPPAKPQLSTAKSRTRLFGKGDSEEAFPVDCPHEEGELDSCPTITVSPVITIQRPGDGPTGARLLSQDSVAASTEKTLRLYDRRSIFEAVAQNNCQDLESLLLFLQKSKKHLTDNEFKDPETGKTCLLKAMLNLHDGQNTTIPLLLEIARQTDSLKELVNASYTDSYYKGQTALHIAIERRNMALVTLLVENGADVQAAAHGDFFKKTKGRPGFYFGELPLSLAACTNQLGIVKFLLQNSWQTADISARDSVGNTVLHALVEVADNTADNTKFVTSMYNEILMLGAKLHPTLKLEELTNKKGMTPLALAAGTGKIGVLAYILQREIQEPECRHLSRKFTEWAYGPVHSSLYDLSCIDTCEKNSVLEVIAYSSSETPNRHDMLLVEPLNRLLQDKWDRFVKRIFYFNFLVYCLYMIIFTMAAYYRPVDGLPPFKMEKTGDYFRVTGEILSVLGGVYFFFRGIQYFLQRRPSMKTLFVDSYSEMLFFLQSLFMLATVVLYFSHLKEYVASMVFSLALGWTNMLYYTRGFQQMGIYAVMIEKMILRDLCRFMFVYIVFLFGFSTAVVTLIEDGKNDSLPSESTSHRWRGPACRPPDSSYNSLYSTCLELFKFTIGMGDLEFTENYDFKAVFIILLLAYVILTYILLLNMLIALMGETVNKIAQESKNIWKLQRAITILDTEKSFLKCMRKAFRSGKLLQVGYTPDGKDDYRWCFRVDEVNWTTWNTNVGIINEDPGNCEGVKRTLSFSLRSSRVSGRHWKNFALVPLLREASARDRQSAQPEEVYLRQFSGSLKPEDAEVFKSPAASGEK

mice = assay: Grip strength test (neuromuscular strength); type: in vivo; conditions: 50 mg/kg i.p., 0.5 h
Experimental: In studies assessing the acute effect of compounds 53 and 60 on the ivPTZ seizure threshold and neuromuscular strength, compounds 53 and 60 was suspended in a 1% solution of Tween 80 and administered i.p., at a dose of 10 mL/kg body weight. Each experimental group consisted of 9–12 animals (ivPTZ seizure threshold test) or 9−10 animals (grip strength test). The timed ivPTZ test was employed to evaluate the acute effect of compounds 53 and 60 on the seizure thresholds for (1) the first myoclonic twitch, (2) generalized clonic seizure with loss of righting reflex, and (3) forelimb tonus. The experimental procedure of the timed ivPTZ test was described in detail elsewhere. The acute effect of compounds 53 and 60 on neuromuscular strength was quantified using the grip-strength apparatus (BIOSEB, Chaville, France) according to the method that is described elsewhere. The results are depicted in Figure 2 (ivPTZ seizure threshold test, see Section 3 Results and Discussion) and Figure 3 (grip strength test, see Section 3 Results and Discussion).
Figure 3 Acute effects of 53 and 60 on the neuromuscular strength in mice. Compounds 53 and 60 were administered i.p. 0.5 h before the seizure test. Control animals received vehicle only. Each experimental group consisted of 9–10 animals. Each bar represents the mean + SEM grip strengths in millinewtons per gram of mouse body weight (mN/g).

recombinant human CYP2C9 = target: T2, recombinant human CYP2C9 (Homo sapiens, UniProt P11712); assay: CYP2C9 P450-Glo luminescent assay; type: in vitro ADME
T2 construct: purchased Promega (Madison, WI, USA)
Experimental: The risk of potential DDIs was predicted with use of luminescent CYP3A4, 2D6, and 2C9 P450-Glo assays (Figure 6). […] However, such an effect was also observed in our previous studies for other pyrrolidine-2,5-dione derivatives. […] However, the potential risk of DDI of 60 was still assessed as very low, and was compared to the selective CYP2C9 inhibitor sulfaphenazole (Figure 6C).
The data were analyzed with one-way ANOVA, followed by Bonferroni’s Multiple Comparison Post Test (Graph Pad Prism 8.0.1 software, San Diego, CA, USA)): * p < 0.05, ** p < 0.01, *** p < 0.001 **** p < 0.0001. The compounds were examined in triplicate.

[2] = tested on: MES-induced seizures in mice; assay: Maximal electroshock seizure (MES) test; type: in vivo; conditions: for protection in MES screening / responders at 100 mg/kg: 100 mg/kg i.p., 0.5 h; for protection in MES screening: four mice; for responders at 100 mg/kg / ED50: Mus musculus, ip; for responders at 100 mg/kg: read-out: MES screening: number of mice protected/number of mice tested (converted); for ED50: mice, pretreatment time 0.5 h, (95% confidence limits)
In short: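 Adult male Albino Swiss mice (22–26 g), compounds suspended in 1% aqueous Tween 80, single i.p. injection, tested 0.5 h post-dose. Screening at 100 mg/kg with four mice per group; ED50 from 3–4 groups of eight. PI = TD50 (chimney test) / ED50.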

Na+ channel (site 2) = Na+ channel (site 2) radioligand binding; conditions: rat cerebral cortex
[3] = target: T3, Cav1.2 (h) calcium ion channel (Homo sapiens, UniProt Q13936); assay: Cav1.2 (h) calcium ion channel cell-based antagonist calcium flux assay; conditions: HEK293, human recombinant HEK-293 cell, read-out: % Inhibition of control agonist response, Cav1.2 calcium flux
T3 construct: Eurofins
T3 sequence (Q13936 whole entry): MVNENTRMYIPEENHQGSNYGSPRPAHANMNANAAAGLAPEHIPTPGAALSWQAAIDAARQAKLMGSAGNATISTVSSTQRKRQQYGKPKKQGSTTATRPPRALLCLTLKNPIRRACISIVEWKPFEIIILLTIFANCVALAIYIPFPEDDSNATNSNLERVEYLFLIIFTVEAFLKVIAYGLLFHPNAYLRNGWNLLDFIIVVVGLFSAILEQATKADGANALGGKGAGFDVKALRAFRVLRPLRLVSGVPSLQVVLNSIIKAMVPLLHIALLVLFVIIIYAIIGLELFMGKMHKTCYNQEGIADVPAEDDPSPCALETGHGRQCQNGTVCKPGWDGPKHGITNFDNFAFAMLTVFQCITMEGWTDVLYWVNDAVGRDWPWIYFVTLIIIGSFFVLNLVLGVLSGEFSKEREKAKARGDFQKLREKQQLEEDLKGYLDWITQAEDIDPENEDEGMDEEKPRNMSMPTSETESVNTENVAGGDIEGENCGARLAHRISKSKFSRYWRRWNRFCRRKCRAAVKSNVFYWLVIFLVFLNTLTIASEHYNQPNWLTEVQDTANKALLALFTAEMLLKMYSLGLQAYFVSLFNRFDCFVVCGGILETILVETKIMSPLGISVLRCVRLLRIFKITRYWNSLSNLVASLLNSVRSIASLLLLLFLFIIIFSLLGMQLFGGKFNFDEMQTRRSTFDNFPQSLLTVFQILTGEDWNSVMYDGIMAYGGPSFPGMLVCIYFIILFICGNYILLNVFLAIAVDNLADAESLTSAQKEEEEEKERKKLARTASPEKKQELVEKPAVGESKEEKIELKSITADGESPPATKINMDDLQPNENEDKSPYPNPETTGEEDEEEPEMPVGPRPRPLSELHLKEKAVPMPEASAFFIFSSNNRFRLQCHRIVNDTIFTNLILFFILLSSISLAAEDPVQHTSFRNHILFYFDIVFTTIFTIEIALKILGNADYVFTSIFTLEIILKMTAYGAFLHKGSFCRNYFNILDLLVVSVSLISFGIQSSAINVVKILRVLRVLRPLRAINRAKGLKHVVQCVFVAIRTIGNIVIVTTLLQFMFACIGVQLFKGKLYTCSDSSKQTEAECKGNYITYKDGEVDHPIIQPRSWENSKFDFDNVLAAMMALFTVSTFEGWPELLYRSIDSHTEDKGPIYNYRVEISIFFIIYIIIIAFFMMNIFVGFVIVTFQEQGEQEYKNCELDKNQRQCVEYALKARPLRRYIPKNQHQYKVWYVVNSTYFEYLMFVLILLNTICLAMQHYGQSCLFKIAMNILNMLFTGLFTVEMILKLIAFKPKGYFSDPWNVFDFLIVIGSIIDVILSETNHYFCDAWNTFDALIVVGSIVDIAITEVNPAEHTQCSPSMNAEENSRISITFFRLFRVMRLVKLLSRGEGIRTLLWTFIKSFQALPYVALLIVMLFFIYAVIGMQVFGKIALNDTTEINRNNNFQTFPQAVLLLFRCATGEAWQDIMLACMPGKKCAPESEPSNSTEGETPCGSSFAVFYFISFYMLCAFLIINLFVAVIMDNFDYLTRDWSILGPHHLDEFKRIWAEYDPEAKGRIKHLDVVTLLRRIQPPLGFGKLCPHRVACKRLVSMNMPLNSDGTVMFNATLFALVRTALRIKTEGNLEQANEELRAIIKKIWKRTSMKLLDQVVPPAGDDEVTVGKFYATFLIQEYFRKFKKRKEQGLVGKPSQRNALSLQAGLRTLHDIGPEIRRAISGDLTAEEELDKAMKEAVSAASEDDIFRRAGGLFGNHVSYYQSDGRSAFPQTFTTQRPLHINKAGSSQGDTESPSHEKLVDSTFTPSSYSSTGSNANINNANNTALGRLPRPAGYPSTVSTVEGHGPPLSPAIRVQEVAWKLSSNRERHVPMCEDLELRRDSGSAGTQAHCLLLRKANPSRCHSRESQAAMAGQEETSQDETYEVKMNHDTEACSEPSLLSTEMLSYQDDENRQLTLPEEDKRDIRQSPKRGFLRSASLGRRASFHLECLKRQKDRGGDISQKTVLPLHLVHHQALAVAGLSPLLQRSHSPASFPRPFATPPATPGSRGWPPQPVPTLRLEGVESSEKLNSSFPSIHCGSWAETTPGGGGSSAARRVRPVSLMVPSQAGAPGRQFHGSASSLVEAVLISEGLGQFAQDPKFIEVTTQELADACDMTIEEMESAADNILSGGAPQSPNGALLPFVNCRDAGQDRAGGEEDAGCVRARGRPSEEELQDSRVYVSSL
T3 sequence (Q08289 whole entry partner): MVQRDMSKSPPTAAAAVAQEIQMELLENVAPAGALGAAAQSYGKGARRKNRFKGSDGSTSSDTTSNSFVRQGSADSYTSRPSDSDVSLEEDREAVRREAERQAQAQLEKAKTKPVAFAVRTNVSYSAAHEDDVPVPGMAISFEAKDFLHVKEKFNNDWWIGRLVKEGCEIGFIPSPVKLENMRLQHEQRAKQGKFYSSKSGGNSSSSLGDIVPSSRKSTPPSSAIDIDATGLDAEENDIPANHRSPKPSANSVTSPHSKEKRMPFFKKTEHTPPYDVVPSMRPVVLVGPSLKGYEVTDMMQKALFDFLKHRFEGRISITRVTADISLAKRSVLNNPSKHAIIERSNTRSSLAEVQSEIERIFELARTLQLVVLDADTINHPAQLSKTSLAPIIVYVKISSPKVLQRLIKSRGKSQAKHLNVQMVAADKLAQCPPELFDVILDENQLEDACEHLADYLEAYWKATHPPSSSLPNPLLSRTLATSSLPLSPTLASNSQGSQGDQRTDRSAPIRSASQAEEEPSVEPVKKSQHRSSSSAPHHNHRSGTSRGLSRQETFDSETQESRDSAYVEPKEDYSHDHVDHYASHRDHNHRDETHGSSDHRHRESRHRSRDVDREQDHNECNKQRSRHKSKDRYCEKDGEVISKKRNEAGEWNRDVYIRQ
T3 sequence (P54289 25-956 partner limits assumed): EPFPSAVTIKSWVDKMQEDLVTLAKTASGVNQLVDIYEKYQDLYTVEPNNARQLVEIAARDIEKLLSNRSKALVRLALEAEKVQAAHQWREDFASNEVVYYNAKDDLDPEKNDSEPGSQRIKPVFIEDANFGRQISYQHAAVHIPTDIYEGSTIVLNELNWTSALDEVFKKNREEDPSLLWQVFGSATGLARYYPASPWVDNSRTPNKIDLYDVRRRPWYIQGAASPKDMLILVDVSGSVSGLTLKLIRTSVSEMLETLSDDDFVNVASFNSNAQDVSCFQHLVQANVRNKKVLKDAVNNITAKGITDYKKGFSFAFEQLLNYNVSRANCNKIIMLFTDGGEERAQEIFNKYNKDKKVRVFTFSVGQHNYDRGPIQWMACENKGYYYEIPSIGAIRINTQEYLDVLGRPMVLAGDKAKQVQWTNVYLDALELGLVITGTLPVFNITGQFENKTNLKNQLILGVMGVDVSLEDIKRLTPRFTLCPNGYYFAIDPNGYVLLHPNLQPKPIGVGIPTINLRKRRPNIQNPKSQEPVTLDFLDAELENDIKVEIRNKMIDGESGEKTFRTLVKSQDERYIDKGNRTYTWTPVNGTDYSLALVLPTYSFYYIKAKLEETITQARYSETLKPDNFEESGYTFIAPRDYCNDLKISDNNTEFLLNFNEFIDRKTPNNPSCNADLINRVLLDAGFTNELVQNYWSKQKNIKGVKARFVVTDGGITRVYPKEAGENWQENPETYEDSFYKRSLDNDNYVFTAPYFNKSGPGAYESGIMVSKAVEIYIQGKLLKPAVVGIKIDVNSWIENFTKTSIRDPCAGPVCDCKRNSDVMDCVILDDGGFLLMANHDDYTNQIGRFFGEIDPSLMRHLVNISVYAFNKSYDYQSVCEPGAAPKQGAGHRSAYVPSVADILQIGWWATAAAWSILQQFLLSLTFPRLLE
T3 sequence (P54289 957-1103 partner limits assumed): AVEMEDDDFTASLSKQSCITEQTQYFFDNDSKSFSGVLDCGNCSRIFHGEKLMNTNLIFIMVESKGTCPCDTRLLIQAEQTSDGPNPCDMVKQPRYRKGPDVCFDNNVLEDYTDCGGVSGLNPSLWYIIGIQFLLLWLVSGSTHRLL
Experimental: Binding/functional studies were carried out commercially in Eurofins Laboratories (Poitiers, France) and Eurofins Panlabs Discovery Services Taiwan, Ltd. (New Taipei City, Taiwan) using testing procedures that were reported previously (for details see Table S2).
Table S2. Radioligand binding and functional assays. […]
TRPV1 (VR1) (h) (antagonist effect)
Cav1.2 (L-type) (h) calcium ion channel cell-based antagonist calcium flux assay
Assays were performed commercially in Eurofins Laboratories (Poitiers, France) or Eurofins Panlabs Discovery
Services Taiwan, Ltd. (New Taipei City, Taiwan). […]

[4] = Metabolic stability in human liver microsomes (HLMs); conditions: for remaining at 2 h: human, human liver microsomes; for Metabolic Pathway: metabolites after 120 min incubation with HLMs

Work on `CC(=O)NC(C(=O)N1CCN(c2cccc(C(F)(F)F)c2)CC1)c1ccccc1` (stereo not shown) [Compound 53, N-(2-oxo-1-phenyl-2-(4-(3-(trifluoromethyl)phenyl)piperazin-1-yl)ethyl)acetamide] yielded an ED50 [1] of 68 mg/kg, an IC50 (TRPV1 (VR1) (h)) of 13 µM and a Kb (TRPV1 (VR1) (h)) of 1.7 µM. For the same molecule, the “effect on neuromuscular strength (grip strength)” value (mice) was “did not significantly affect”, the “influence on CYP2C9 activity” value (recombinant human CYP2C9) was “weak inhibition effect” and the “protection in MES screening” value [2] was 75%. For the same molecule, the responders at 100 mg/kg [2] was 75%, the ED50 [2] was 89.7 mg/kg and the “% Inhibition of Control Specific Binding, Na+ channel (site 2)” value (from here on “% Inhibition of Control Specific Binding”) (Na+ channel (site 2); 10 µM) was 17.4%. For the same molecule, the “% Inhibition of Control Specific Binding” value (Na+ channel (site 2); 100 µM) was 75.5%, the inhibition at 10 µM [3] was 55% and the remaining at 2 h [4] was 95.6%. The “Metabolic Pathway” value [4] was “hydroxylation”.

In the case of `CC(=O)NC(C(=O)N1CCN(c2cccc(OC(F)(F)F)c2)CC1)c1ccccc1` (stereo not shown) [Compound 60, N-(2-oxo-1-phenyl-2-(4-(3-(trifluoromethoxy)phenyl)piperazin-1-yl)ethyl)acetamide], the ED50 [1] is reported as 56.3 mg/kg, the IC50 (TRPV1 (VR1) (h)) is reported as 11 µM and the Kb (TRPV1 (VR1) (h)) is reported as 1.5 µM. The “effect on neuromuscular strength (grip strength)” value (mice) was “did not significantly affect”, the “influence on CYP2C9 activity” value (recombinant human CYP2C9) was “a little stronger influence, observed also at 10 µM” and the “protection in MES screening” value [2] was 75%. For the same molecule, the responders at 100 mg/kg [2] was 75%, the ED50 [2] was 73.6 mg/kg and the “% Inhibition of Control Specific Binding” value (Na+ channel (site 2); 10 µM) was 37.0 (10) %. For the same molecule, the inhibition at 10 µM [3] was 31%, the remaining at 2 h [4] was 88.8% and the “Metabolic Pathway” value [4] was “hydroxylation; also recorded: dehydrogenation”.
